Assays:
[1] = In vitro dissolution testing (USP Apparatus 1, basket); assay type: physicochemical; details: DI water
Description: Dissolution and assay testing for API, F1, F7, F9, F10, F11 and F12.
• 6. Transfer 500 mL of DI water dissolution medium into each vessel. • 7. Equilibrate the dissolution medium to 37.0±0.5° C. • 8. Transfer 600 mg of each formulation granule into a capsule. • 9. Transfer a capsule into a basket and lower to the position. Start stirring at 100 RPM. • 10. At the stated time(s), sample 1 mL solutions by auto-sampler. Assay Sample Preparation (0.3 mg/mL): • 11. Weigh out 18 mg of granules into a […] volumetric flask. • 12. Dissolve and dilute up to the volume with Diluent (50% ACN in H2O). • 13. Mix well.

[2] = Particle size distribution by dynamic light scattering (Zetasizer); assay type: physicochemical; details: in length
Description: Results: Particle size distribution as determined by dynamic light scattering of Compound 1 lysine salt nanosuspension post milling is shown below in Table 1B. Samples for particle size distribution was prepared by diluting the Nano milled sample by 100-fold with Di-water. Zetasizer was utilized to measure particle size distribution. PdI is the representation of the distribution of size populations within a given sample. This is a numerical range from 0.0 (for a perfectly uniform sample) through 1.0 (for a highly polydisperse sample with multiple particle size populations). The value D10 refers to a diameter of particles in the sample wherein 10% of the particles in the sample have a diameter smaller than this value (118.8 nm). The value D50 refers to a diameter of particles in the sample wherein 50% of the particles have a diameter smaller than this value (249.0 nm). The value D90 refers to a diameter of particles in the sample wherein 90% of the particles in the sample have a diameter smaller than this value (611 nm).
The stability of the nanosuspension based on particle size distribution under refrigerated condition and room condition is shown below in Table 2.

SMILES: CC(C)c1ccc(N(C)c2ccc3c(c2)OCC[C@H]3CNc2cnccc2C(=O)O)cc1.NCCCC[C@H](N)C(=O)O [Compound 1 Lysine salt, 3-({[(4R)-7-{methyl[4-(propan-2-yl)phenyl]amino}-3,4-dihydro-2H-1-benzopyran-4-yl]methyl}amino)pyridine-4-carboxylic acid, L-lysine salt]
- release after 120 minutes [1]: no release at all
- initial particle size prior to milling [2]: 6-15 micrometer

From patent US20250134874A1, “PHARMACEUTICAL FORMULATIONS COMPRISING 3-({[(4R)-7-{METHYL[4-(PROPAN-2-YL)PHENYL]AMINO}-3,4-DIHYDRO-2H-1-BENZOPYRAN-4-YL]METHYL}AMINO)PYRIDINE-4-CARBOXYLIC ACID” (TACHYON THERAPEUTICS, INC., priority 2021, published 2025)
